{"source": "patent US20150157588A1", "about": "“Pharmaceutical Composition Comprising Amino-Phenyl-Acetic Acid Octadec-(Z)-9-enyl Ester and Use Thereof for Treating Tumors” (Yeda Research and Development Co., Ltd., priority 2012, published 2015)", "system": "anti-CD3-activated T cells", "assay": "Microarray gene expression, T cells activated by anti-CD3 antibody", "format": "cell-based, human", "conditions": "anti-CD3-activated T cells; for Fold change COL6A3: 201438_at; for Fold change CTSL: 202087_s_at; for Fold change IGF2 /// INS-IGF2: 202409_at; for Fold change IGFBP2: 202718_at; for Fold change SERPINA1: 202833_s_at; for Fold change S100A8: 202917_s_at; for Fold change MET: 203510_at; for Fold change MMP9: 203936_s_at; for Fold change LOC645619 /// LOC731007: 204347_at; for Fold change AK3L1: 204348_s_at; for Fold change SLC7A7: 204588_s_at; for Fold change SERPINB2: 204614_at; for Fold change TTK: 204822_at; for Fold change GNG4: 205184_at; for Fold change ADAMDEC1: 206134_at; for Fold change PLA2G7: 206214_at; for Fold change HCK: 208018_s_at", "procedure": "CD3 positive T cells were extracted from a healthy donor according to a standard protocol, and seeded in T cell medium including RPMI, 10% fetal calf serum, sodium pyruvate, L-Glutamine, and Penicillin/Streptomycin. Following an overnight incubation with medium, the cells were treated by incubating for 2 hours at 37° C. with amino-phenyl-acetic acid octadec-(Z)-9-enyl ester at a concentration of 10 micrograms/ml in a final volume of 10 ml in T-cell medium with or without 0.05% ethanol. After incubation, half the cells from each treatment were centrifuged and 2 ml of Tri-reagent (Sigma) were added to the pellet. The other half of the cells from each treatment were transferred to anti-CD3 antibody coated 24 well plates for an overnight incubation at 37° C. Coating plates with an anti-CD3 antibody was carried out by incubating with 2 micrograms/ml of OKT3 anti-CD3 antibody overnight at 4° C., washing three times with PBS and blocking with filtered 1% Bovine Serum Albumin for 1 hour. After activation with anti-CD3 antibody, cells were centrifuged and 2 ml of Tri-reagent were added to the pellet.\nRNA was extracted from unstimulated cells and from cells activated with anti-CD3 according to standard protocols and used for hybridization with a Human Genome U133A 2.0 (Affymetrix, Catalogue number 900468), according to the manufacturer's instructions. The results of the hybridization were read by a GeneChip scanner 3000 (Affymetrix) and analyzed by QuantArray (GSI lumonics).\nThe effects of amino-phenyl-acetic acid octadec-(Z)-9-enyl ester in ethanol solution or in an aqueous vehicle (hereinafter termed “in PBS”) on gene expression in unstimulated T cells and T cells activated by anti-CD3 antibody were compared by microarray analysis.", "key": {"[1]": {"conditions": "in ethanol solution vs untreated"}}}
{"compound": "CCCCCCCC/C=C\\CCCCCCCCOC(=O)C(N)c1ccccc1", "note": "(stereo not shown) [amino-phenyl-acetic acid octadec-(Z)-9-enyl ester]", "values": [{"measurement": "Fold change IL1B", "setting": "39402_at, in ethanol solution vs untreated", "value": 2.03}, {"measurement": "Fold change THBS1", "setting": "201109_s_at, in ethanol solution vs untreated", "value": 1.94}, {"measurement": "Fold Change EIF5A", "setting": "201123_s_at, in ethanol solution vs in PBS", "value": "−1.97"}, {"measurement": "Fold change COL6A3", "setting": "in ethanol solution vs in PBS", "value": "−2.16"}, {"measurement": "Fold change COL6A3", "setting": "[1]", "value": "−2.06"}, {"measurement": "Fold change BNIP3", "setting": "201848_s_at, in ethanol solution vs in PBS", "value": "−3.39"}, {"measurement": "Fold change BNIP3", "setting": "201848_s_at, in ethanol solution vs untreated", "value": "−2.99"}, {"measurement": "Fold change BNIP3", "setting": "201849_at, in ethanol solution vs in PBS", "value": "−3.34"}, {"measurement": "Fold change BNIP3", "setting": "201849_at, in ethanol solution vs untreated", "value": "−3.24"}, {"measurement": "Fold change CTSL", "setting": "in ethanol solution vs in PBS", "value": 2.18}, {"measurement": "Fold change CTSL", "setting": "[1]", "value": 2.30}, {"measurement": "Fold change IGF2 /// INS-IGF2", "setting": "in ethanol solution vs in PBS", "value": "−2.42"}, {"measurement": "Fold change IGF2 /// INS-IGF2", "setting": "[1]", "value": "−2.17"}, {"measurement": "Fold change CYP1B1", "setting": "202436_s_at, in ethanol solution vs untreated", "value": 2.02}, {"measurement": "Fold change IGFBP2", "setting": "in ethanol solution vs in PBS", "value": "−6.02"}, {"measurement": "Fold change IGFBP2", "setting": "[1]", "value": "−5.13"}, {"measurement": "Fold change SERPINA1", "setting": "in ethanol solution vs in PBS", "value": 1.97}, {"measurement": "Fold change SERPINA1", "setting": "[1]", "value": 2.12}, {"measurement": "Fold change S100A8", "setting": "in ethanol solution vs in PBS", "value": 2.11}, {"measurement": "Fold change S100A8", "setting": "[1]", "value": 2.24}, {"measurement": "Fold Change GBE1", "setting": "203282_at, in ethanol solution vs in PBS", "value": "−1.92"}, {"measurement": "Fold change LMAN1", "setting": "203294_s_at, in PBS vs untreated", "value": 1.91}, {"measurement": "Fold Change ABCA1", "setting": "203504_s_at, in ethanol solution vs in PBS", "value": "−1.90"}, {"measurement": "Fold change MET", "setting": "in ethanol solution vs in PBS", "value": 2.76}, {"measurement": "Fold change MET", "setting": "[1]", "value": 2.35}, {"measurement": "Fold change DFNA5", "setting": "203695_s_at, in ethanol solution vs untreated", "value": 1.92}, {"measurement": "Fold change MMP9", "setting": "in ethanol solution vs in PBS", "value": 2.67}, {"measurement": "Fold change MMP9", "setting": "[1]", "value": 2.74}, {"measurement": "Fold Change CA12", "setting": "203963_at, in ethanol solution vs in PBS", "value": 2.02}, {"measurement": "Fold Change CA12", "setting": "203963_at, in ethanol solution vs untreated", "value": 1.91}, {"measurement": "Fold Change CDC6", "setting": "203967_at, in ethanol solution vs in PBS", "value": "−2.03"}, {"measurement": "Fold change FCER1G", "setting": "204232_at, in ethanol solution vs untreated", "value": 1.94}, {"measurement": "Fold change LOC645619 /// LOC731007", "setting": "in ethanol solution vs in PBS", "value": "−2.52"}, {"measurement": "Fold change LOC645619 /// LOC731007", "setting": "[1]", "value": "−2.25"}, {"measurement": "Fold change AK3L1", "setting": "in ethanol solution vs in PBS", "value": "−3.93"}, {"measurement": "Fold change AK3L1", "setting": "[1]", "value": "−3.14"}, {"measurement": "Fold change MMP1", "setting": "204475_at, in ethanol solution vs untreated", "value": 2.32}, {"measurement": "Fold Change CA12", "setting": "204508_s_at, in ethanol solution vs in PBS", "value": 2.09}, {"measurement": "Fold change ABCG1", "setting": "204567_s_at, in ethanol solution vs untreated", "value": "−2.12"}, {"measurement": "Fold change SLC7A7", "setting": "in ethanol solution vs in PBS", "value": 2.05}, {"measurement": "Fold change SLC7A7", "setting": "[1]", "value": 2.07}, {"measurement": "Fold change EXO1", "setting": "204603_at, in ethanol solution vs untreated", "value": "−2.25"}, {"measurement": "Fold change SERPINB2", "setting": "in ethanol solution vs in PBS", "value": 2.60}, {"measurement": "Fold change SERPINB2", "setting": "[1]", "value": 3.14}, {"measurement": "Fold change TTK", "setting": "in ethanol solution vs in PBS", "value": "−2.04"}, {"measurement": "Fold change TTK", "setting": "[1]", "value": "−2.40"}, {"measurement": "Fold change DOCK4", "setting": "205003_at, in ethanol solution vs untreated", "value": 2.33}, {"measurement": "Fold change RAD51", "setting": "205024_s_at, in ethanol solution vs untreated", "value": "−2.09"}, {"measurement": "Fold change IL1B", "setting": "205067_at, in ethanol solution vs untreated", "value": 2.03}, {"measurement": "Fold change GNG4", "setting": "in ethanol solution vs in PBS", "value": 2.04}, {"measurement": "Fold change GNG4", "setting": "[1]", "value": 2.23}, {"measurement": "Fold change IL6", "setting": "205207_at, in ethanol solution vs untreated", "value": 1.95}, {"measurement": "Fold change probeset 205296_at", "setting": "205296_at, in ethanol solution vs untreated", "value": "−2.02"}, {"measurement": "Fold Change WDR76", "setting": "205519_at, in ethanol solution vs in PBS", "value": "−2.42"}, {"measurement": "Fold change AQP9", "setting": "205568_at, in ethanol solution vs untreated", "value": 2.27}, {"measurement": "Fold change ZC3H11A", "setting": "205787_x_at, in PBS vs untreated", "value": 1.95}, {"measurement": "Fold change MT3", "setting": "205970_at, in ethanol solution vs untreated", "value": "−2.05"}, {"measurement": "Fold change TNFAIP6", "setting": "206025_s_at, in ethanol solution vs untreated", "value": 1.92}, {"measurement": "Fold change SFRS6", "setting": "206108_s_at, in PBS vs untreated", "value": 2.16}, {"measurement": "Fold change ADAMDEC1", "setting": "in ethanol solution vs in PBS", "value": 2.41}, {"measurement": "Fold change ADAMDEC1", "setting": "[1]", "value": 2.87}, {"measurement": "Fold change PLA2G7", "setting": "in ethanol solution vs in PBS", "value": 2.12}, {"measurement": "Fold change PLA2G7", "setting": "[1]", "value": 3.44}, {"measurement": "Fold change SERPINB7", "setting": "206421_s_at, in ethanol solution vs untreated", "value": 1.99}, {"measurement": "Fold change IL24", "setting": "206569_at, in ethanol solution vs untreated", "value": 1.97}, {"measurement": "Fold change CSF3", "setting": "207442_at, in ethanol solution vs untreated", "value": 2.14}, {"measurement": "Fold Change P4HA1", "setting": "207543_s_at, in ethanol solution vs in PBS", "value": "−2.20"}, {"measurement": "Fold change HCK", "setting": "in ethanol solution vs in PBS", "value": 1.93}, {"measurement": "Fold change HCK", "setting": "[1]", "value": 2.14}, {"measurement": "Fold change CASP2", "setting": "208050_s_at, in PBS vs untreated", "value": 2.04}]}
